# Data reported in ChEMBL document CHEMBL3585263, “Novel Octahydropyrrolo[3,4-c]pyrroles Are Selective Orexin-2 Antagonists: SAR Leading to a Clinical Candidate” (J Med Chem, 2015).
# Legend:
# [1] = Plasma protein binding in human at 1 uM after 6 hrs by equilibrium dialysis method; assay type: ADME, cell-free; conditions: read-out: PPB (converted)
# [2] = Plasma protein binding in rat at 1 uM after 6 hrs by equilibrium dialysis method; assay type: ADME, cell-free; conditions: read-out: PPB (converted)
# [3] = Volume of distribution at steady state in Sprague-Dawley rat at 10 mg/kg, po and 1 mg/kg, iv; assay type: ADME, organism-based; conditions: in vivo, read-out: Vdss
# Cytochrome P450 1A2 = target: T1, Cytochrome P450 1A2 (Homo sapiens, UniProt P05177); assay: Inhibition of CYP1A2 in human liver microsomes using phenacetin as substrate by LC-MS/MS analysis
# T1 sequence (P05177 whole entry): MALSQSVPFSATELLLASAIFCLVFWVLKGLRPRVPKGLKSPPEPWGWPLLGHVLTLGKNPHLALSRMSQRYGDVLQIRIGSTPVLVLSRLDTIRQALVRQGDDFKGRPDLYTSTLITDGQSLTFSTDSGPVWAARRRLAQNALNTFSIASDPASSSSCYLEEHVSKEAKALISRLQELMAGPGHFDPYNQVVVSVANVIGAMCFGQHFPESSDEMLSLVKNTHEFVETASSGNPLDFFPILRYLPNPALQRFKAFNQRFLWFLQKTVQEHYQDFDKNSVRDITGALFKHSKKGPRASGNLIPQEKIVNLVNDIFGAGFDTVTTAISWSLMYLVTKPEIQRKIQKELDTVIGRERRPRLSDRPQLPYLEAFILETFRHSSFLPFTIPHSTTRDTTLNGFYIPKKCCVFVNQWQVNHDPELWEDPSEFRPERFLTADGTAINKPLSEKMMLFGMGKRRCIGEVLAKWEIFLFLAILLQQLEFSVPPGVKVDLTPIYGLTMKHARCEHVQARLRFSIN
# [4] = Half life in Sprague-Dawley rat at 1 mg/kg, iv; assay type: ADME, organism-based; conditions: in vivo
# [5] = Oral bioavailability in Sprague-Dawley rat at 10 mg/kg; assay type: ADME, organism-based; conditions: in vivo
# Rattus norvegicus [6] = assay: Ex vivo OX2 receptor occupancy in Sprague-Dawley rat brain at 30 mg/kg, po after 30 mins by autoradiographic analysis; assay type: functional
# Orexin receptor type 2 [7] = target: T2, Orexin receptor type 2 (Rattus norvegicus, UniProt P56719); assay: Binding affinity to rat OX2 receptor
# T2 sequence (P56719 whole entry): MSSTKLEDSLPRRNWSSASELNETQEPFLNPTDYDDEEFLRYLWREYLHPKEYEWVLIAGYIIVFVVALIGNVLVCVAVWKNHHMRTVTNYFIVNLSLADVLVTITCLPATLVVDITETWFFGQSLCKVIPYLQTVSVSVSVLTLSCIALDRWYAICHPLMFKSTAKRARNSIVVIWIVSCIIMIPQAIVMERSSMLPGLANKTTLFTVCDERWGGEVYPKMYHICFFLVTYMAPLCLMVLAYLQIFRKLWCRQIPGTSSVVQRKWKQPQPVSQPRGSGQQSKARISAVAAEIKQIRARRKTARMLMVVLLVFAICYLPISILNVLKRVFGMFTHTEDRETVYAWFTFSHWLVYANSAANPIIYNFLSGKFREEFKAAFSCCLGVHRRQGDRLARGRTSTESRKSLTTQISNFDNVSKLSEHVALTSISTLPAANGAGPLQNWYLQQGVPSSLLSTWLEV
# [8] = Clearance in Sprague-Dawley rat at 10 mg/kg, po and 1 mg/kg, iv; assay type: ADME, organism-based; conditions: in vivo
# [9] = target: Voltage-gated inwardly rectifying potassium channel KCNH2 (Homo sapiens, UniProt Q12809); assay: Inhibition of [3H]-astemizole binding to human ERG expressed in HEK293 cells
# Chain of Voltage-gated inwardly rectifying potassium channel KCNH2 (Q12809 whole entry): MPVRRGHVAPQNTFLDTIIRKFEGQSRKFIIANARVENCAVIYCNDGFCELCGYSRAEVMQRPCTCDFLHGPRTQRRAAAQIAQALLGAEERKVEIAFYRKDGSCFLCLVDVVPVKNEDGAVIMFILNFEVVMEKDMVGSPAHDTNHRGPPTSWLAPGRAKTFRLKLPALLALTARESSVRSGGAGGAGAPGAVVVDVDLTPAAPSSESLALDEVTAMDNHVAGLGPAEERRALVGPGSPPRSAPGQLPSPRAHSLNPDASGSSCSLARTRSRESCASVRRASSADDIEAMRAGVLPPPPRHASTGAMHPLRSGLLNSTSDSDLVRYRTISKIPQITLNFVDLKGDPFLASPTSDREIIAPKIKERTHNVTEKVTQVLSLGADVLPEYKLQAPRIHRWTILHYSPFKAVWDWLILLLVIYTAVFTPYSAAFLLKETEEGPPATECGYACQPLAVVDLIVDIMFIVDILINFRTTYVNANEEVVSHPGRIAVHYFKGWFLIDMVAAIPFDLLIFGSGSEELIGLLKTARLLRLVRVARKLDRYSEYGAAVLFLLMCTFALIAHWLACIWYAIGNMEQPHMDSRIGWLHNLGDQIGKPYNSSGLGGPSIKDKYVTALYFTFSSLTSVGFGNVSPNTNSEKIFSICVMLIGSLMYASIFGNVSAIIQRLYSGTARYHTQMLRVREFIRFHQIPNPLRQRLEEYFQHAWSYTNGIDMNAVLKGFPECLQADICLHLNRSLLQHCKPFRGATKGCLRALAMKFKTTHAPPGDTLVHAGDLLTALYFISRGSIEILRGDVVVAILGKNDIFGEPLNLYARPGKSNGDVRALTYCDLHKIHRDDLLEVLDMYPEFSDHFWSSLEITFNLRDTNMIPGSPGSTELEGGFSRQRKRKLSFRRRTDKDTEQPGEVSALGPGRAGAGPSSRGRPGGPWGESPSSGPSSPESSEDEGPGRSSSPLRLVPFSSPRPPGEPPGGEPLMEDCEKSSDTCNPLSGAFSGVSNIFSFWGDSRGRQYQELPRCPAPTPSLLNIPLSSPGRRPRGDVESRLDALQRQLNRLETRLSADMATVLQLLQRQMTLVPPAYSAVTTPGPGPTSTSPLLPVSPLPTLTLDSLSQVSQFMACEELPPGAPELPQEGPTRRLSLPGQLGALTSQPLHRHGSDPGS
# [10] = Apparent permeability from basolateral to apical side in human Caco2/TC7 cells at 10 uM; conditions: Caco-2
# [11] = Apparent permeability from apical to basolateral side in human Caco2/TC7 cells at 10 uM; conditions: Caco-2
# Orexin receptor type 2 [12] = target: T3, Orexin receptor type 2 (Homo sapiens, UniProt O43614); assay: Binding affinity to human OX2 receptor
# T3 sequence (O43614 whole entry): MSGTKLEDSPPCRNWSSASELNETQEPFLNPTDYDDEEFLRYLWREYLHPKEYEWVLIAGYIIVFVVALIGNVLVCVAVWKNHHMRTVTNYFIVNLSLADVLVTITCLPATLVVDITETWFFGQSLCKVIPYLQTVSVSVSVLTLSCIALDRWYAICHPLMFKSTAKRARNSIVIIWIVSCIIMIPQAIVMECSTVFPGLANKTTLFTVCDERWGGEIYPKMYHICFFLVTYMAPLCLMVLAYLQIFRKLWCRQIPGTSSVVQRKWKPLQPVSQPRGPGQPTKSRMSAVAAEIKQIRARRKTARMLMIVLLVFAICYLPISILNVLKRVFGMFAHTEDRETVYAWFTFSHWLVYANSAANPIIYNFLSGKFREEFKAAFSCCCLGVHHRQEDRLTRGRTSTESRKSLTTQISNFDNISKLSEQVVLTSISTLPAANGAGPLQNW
# [13] = target: T4, Orexin/Hypocretin receptor type 1 (Homo sapiens, UniProt O43613); assay: Binding affinity to human OX1 receptor
# T4 sequence (O43613 whole entry): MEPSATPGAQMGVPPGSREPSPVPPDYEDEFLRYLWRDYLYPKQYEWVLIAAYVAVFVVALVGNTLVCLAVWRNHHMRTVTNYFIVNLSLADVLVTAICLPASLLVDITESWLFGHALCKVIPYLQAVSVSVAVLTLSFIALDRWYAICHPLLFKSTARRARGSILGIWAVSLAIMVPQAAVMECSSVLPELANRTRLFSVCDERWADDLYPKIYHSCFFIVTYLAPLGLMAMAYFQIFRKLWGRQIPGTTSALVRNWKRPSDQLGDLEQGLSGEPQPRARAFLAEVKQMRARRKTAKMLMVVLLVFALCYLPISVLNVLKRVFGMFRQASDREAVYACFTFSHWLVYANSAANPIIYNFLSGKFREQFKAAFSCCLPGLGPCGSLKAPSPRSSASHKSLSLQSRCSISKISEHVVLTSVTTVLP
# Rattus norvegicus [14] = assay: Ex vivo OX2 receptor occupancy in Sprague-Dawley rat brain at 10 mg/kg, po after 30 mins by autoradiographic analysis; assay type: functional
# [15] = Cmax in Sprague-Dawley rat at 10 mg/kg, po; assay type: ADME, organism-based; set-up: dose 10 mg/kg, route oral; conditions: in vivo
# [16] = Metabolic stability in rat liver microsomes assessed as extraction ratio at 1 uM measured over 1 hr by LC-MS/MS analysis
# Rattus norvegicus [17] = assay: Ex vivo OX2 receptor occupancy in Sprague-Dawley rat brain at 30 mg/kg, po after 15 mins by autoradiographic analysis; assay type: functional
# [18] = Metabolic stability in human liver microsomes assessed as extraction ratio at 1 uM measured over 1 hr by LC-MS/MS analysis
# [19] = Protein binding in rat brain at 5 uM after 5 hrs by equilibrium dialysis method; assay type: ADME, tissue-based; conditions: read-out: PB (converted)
smiles,measurement,setting,value
Cc1cc(C)nc(N2C[C@H]3CN(C(=O)c4ccc(F)cc4-n4nccn4)C[C@H]3C2)n1,"fraction unbound at 6 h, 1 µM",[1],0.075
same,"fraction unbound at 6 h, 1 µM",[2],0.116
same,Vd,[3],1.5 L/kg
same,IC50,Cytochrome P450 1A2,9300 nM
same,half-life,[4],22.2 min
same,bioavailability,[5],18%
same,Occ,Rattus norvegicus [6],72%
same,Ki,Orexin receptor type 2 [7],14 nM
same,clearance,[8],65.5 mL/min/kg
same,IC50,[9],> 10000 nM
same,Papp B→A at 10 µM,[10],26.8 ×10⁻⁶ cm/s
same,Papp A→B at 10 µM,[11],58.1 ×10⁻⁶ cm/s
Cc1cc(C)nc(N2C[C@H]3CN(C(=O)c4c(C)cccc4-n4nccn4)C[C@H]3C2)n1,Ki,Orexin receptor type 2 [7],12 nM
same,IC50,[9],6900 nM
Cc1cc(C)nc(N2C[C@H]3CN(C(=O)c4ccccc4-c4cccc(F)c4)C[C@H]3C2)n1,Ki,Orexin receptor type 2 [12],180 nM
same,Ki,[13],> 10000 nM
Cc1cc(C)nc(N2C[C@H]3CN(C(=O)c4c(C)ccc5ccccc45)C[C@H]3C2)n1,Ki,Orexin receptor type 2 [12],51 nM
same,Ki,[13],1800 nM
O=C(c1ccccc1-n1cccn1)N1C[C@@H]2CN(c3cnc4ccccc4n3)C[C@@H]2C1,Ki,Orexin receptor type 2 [12],768 nM
same,Ki,[13],> 10000 nM
O=C(c1ccccc1-c1cccs1)N1C[C@@H]2CN(c3nc4ccc(F)cc4s3)C[C@@H]2C1,Ki,Orexin receptor type 2 [12],137 nM
same,Ki,[13],267 nM
O=C(c1ccccc1-c1ccccc1)N1C[C@@H]2CN(c3nc4ccccc4s3)C[C@@H]2C1,Ki,Orexin receptor type 2 [12],687 nM
same,Ki,[13],1400 nM
COc1ccc(-n2nccn2)c(C(=O)N2C[C@@H]3CN(c4nc(C)cc(C)n4)C[C@@H]3C2)c1,Ki,Orexin receptor type 2 [7],38 nM
same,IC50,[9],8100 nM
COc1ccc(C(=O)N2C[C@@H]3CN(c4nc5ccc(F)cc5s4)C[C@@H]3C2)c(OC)c1,Ki,Orexin receptor type 2 [12],746 nM
same,Ki,[13],> 10000 nM
COc1ccc(C(=O)N2C[C@@H]3CN(c4nc5ccc(OC)cc5s4)C[C@@H]3C2)c(OC)c1,Ki,Orexin receptor type 2 [12],875 nM
same,Ki,[13],> 10000 nM
Cc1cc(C)nc(N2C[C@H]3CN(C(=O)c4ccccc4-c4cccs4)C[C@H]3C2)n1,Ki,Orexin receptor type 2 [12],9.8 nM
same,Ki,[13],471 nM
same,Ki,Orexin receptor type 2 [7],7 nM
same,Occ,Rattus norvegicus [14],26%
CCOc1ccc2ccccc2c1C(=O)N1C[C@@H]2CN(c3nc(C)cc(C)n3)C[C@@H]2C1,Ki,Orexin receptor type 2 [12],27 nM
same,Ki,[13],557 nM
COc1ccc(C(=O)N2C[C@@H]3CN(c4nc5ccc(Cl)cc5s4)C[C@@H]3C2)c(OC)c1,Ki,Orexin receptor type 2 [12],510 nM
same,Ki,[13],5300 nM
O=C(c1ccccc1-c1ccccc1)N1C[C@@H]2CN(c3nccc(-c4ccccc4)n3)C[C@@H]2C1,Ki,Orexin receptor type 2 [12],421 nM
same,Ki,[13],765 nM
Cc1cc(C)nc(N2C[C@H]3CN(C(=O)c4cc(F)ccc4-n4nccn4)C[C@H]3C2)n1,IC50,[9],> 10000 nM
Cc1cc(C)nc(N2C[C@H]3CN(C(=O)c4ccccc4-n4nccn4)C[C@H]3C2)n1,Vd,[3],0.7 L/kg
same,half-life,[4],16.2 min
same,Cmax,[15],148 ng/mL
same,bioavailability,[5],8%
same,Occ,Rattus norvegicus [6],67%
same,Ki,Orexin receptor type 2 [7],2 nM
same,clearance,[8],52.1 mL/min/kg
same,IC50,[9],> 10000 nM
O=C(c1ccccc1-c1ccccc1)N1C[C@@H]2CN(c3nc4ccc(F)cc4s3)C[C@@H]2C1,Ki,Orexin receptor type 2 [12],294 nM
same,Ki,[13],925 nM
COc1ccnc(N2C[C@H]3CN(C(=O)c4c(C)ccc5ccccc45)C[C@H]3C2)n1,Ki,Orexin receptor type 2 [12],141 nM
same,Ki,[13],3300 nM
Cc1cc(C)nc(N2C[C@H]3CN(C(=O)c4ccccc4-c4ncn[nH]4)C[C@H]3C2)n1,Ki,Orexin receptor type 2 [12],30 nM
same,Vd,[3],3.9 L/kg
same,half-life,[4],22.8 min
same,bioavailability,[5],22%
same,"hepatic extraction ratio at 1 h, 1 µM",[16],0.51
same,Ki,[13],3650 nM
same,Ki,Orexin receptor type 2 [7],39 nM
same,clearance,[8],150 mL/min/kg
same,IC50,[9],> 10000 nM
same,Occ,Rattus norvegicus [17],0%
same,"hepatic extraction ratio at 1 h, 1 µM",[18],0.73
Cc1ccnc(N2C[C@H]3CN(C(=O)c4ccccc4-c4ccccc4)C[C@H]3C2)n1,Ki,Orexin receptor type 2 [12],899 nM
same,Ki,[13],> 10000 nM
Cc1cc(C)nc(N2C[C@H]3CN(C(=O)c4cccc(F)c4-n4nccn4)C[C@H]3C2)n1,"fraction unbound at 5 h, 5 µM",[19],0.156
same,"fraction unbound at 6 h, 1 µM",[1],0.095
same,"fraction unbound at 6 h, 1 µM",[2],0.273
same,Vd,[3],0.7 L/kg
same,IC50,Cytochrome P450 1A2,3100 nM
same,half-life,[4],12 min
same,bioavailability,[5],21%
same,clearance,[8],57 mL/min/kg
same,IC50,[9],6000 nM
same,Papp B→A at 10 µM,[10],49.7 ×10⁻⁶ cm/s
same,Occ,Rattus norvegicus [17],49%
same,Papp A→B at 10 µM,[11],62.3 ×10⁻⁶ cm/s
O=C(c1ccccc1-c1ccccc1)N1C[C@@H]2CN(c3cnc4ccccc4n3)C[C@@H]2C1,Ki,Orexin receptor type 2 [12],240 nM
same,Ki,[13],1320 nM
COc1cc(OC)nc(N2C[C@H]3CN(C(=O)c4ccccc4-c4cccs4)C[C@H]3C2)n1,Ki,Orexin receptor type 2 [12],41 nM
same,Ki,[13],257 nM
O=C(c1ccccc1-c1cccs1)N1C[C@@H]2CN(c3cnc4ccccc4n3)C[C@@H]2C1,Ki,Orexin receptor type 2 [12],106 nM
same,Ki,[13],623 nM
COc1ccc(C(=O)N2C[C@@H]3CN(c4nc5ccc(C)cc5s4)C[C@@H]3C2)c(OC)c1,Ki,Orexin receptor type 2 [12],680 nM
same,Ki,[13],> 10000 nM
